Assay results as given in BindingDB's records for doi:10.1016/j.bmcl.2004.07.091 (Keio University, 2004).

What follows are compounds tested against beta-glucosidase (Rattus norvegicus) (assay: Inhibition of Beta-glucosidase of rat intestine; no inhibition).

IC50, > 1 mM:
CCCCCCCCNC1CC(CO)C(O)C(O)C1O (stereo unspecified) [4-Hydroxymethyl-6-octylamino-cyclohexane-1,2,3-triol]
CO[C@@H]1CC2COC(C1O)[C@H]2NC1CC(CO)C(O)C(O)C1O (stereo partly drawn) [4-((3R,8S)-4-Hydroxy-3-methoxy-6-oxa-bicyclo[3.2.1]oct-8-ylamino)-6-hydroxymethyl-cyclohexane-1,2,3-triol]
C=C1CC(NCCCCCCCC)C(O)C(O)C1O (stereo unspecified) [4-Methylene-6-octylamino-cyclohexane-1,2,3-triol]

What follows are compounds tested against T1, Beta-galactosidase (Bos taurus, UniProt Q58D55) (assay: Inhibition of Beta-galactosidase of bovine liver; no inhibition).
T1 sequence (Q58D55 whole entry): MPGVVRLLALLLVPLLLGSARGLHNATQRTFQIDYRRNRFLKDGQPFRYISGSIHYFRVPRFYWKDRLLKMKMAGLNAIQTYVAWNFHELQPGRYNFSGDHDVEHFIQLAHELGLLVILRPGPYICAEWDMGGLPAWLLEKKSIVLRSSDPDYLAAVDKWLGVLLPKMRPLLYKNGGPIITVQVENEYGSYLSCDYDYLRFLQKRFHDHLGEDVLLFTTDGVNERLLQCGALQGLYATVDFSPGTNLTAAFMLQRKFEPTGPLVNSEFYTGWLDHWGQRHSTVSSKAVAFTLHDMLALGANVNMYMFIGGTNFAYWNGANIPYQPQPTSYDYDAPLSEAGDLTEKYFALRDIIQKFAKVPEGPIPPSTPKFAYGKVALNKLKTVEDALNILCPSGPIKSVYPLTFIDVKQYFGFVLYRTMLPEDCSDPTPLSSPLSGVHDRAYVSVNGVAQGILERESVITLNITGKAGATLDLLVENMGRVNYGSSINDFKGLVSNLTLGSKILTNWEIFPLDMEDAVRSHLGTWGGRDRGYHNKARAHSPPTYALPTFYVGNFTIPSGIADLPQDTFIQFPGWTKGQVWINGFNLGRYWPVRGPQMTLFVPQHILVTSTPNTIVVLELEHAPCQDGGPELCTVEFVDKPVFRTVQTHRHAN

IC50, > 1 mM:
N[C@H]1C[C@H](CO)[C@@H](O)[C@H](O)[C@H]1O
CO[C@@H]1CC2COC(C1O)[C@H]2NC1CC(CO)C(O)C(O)C1O (stereo partly drawn) [4-((3R,8S)-4-Hydroxy-3-methoxy-6-oxa-bicyclo[3.2.1]oct-8-ylamino)-6-hydroxymethyl-cyclohexane-1,2,3-triol]
CC(=O)NC1CC(CO)C(O)C(O)C1O (stereo unspecified) [N-(2,3,4-Trihydroxy-5-hydroxymethyl-cyclohexyl)-acetamide]
